Assay results reported in patent US20110150980A1, “CGRP ANALOG” (VasoGenix Pharmaceuticals, Inc., priority 2009, published 2011).

Tests used:
rats = details: 19 ng/kg/min; cited from earlier work
[1] = system: non-sedated, non-naïve cynomolgus monkeys; assay: Intravenous infusion in non-sedated, telemeterized non-human primates: blood pressure, heart rate, ECG (Example 2); type: in vivo
Description: Peptides were synthesized as in Example 1. […] Two non-naïve, telemeterized, male non-human primates (NHP “a” and “b”) were used for the test article(s) dosing regimen. […] Following a stabilized baseline period of approximately 30 minutes, one of the test article(s) was administered as an intravenous infusion via a femoral vein vascular access port (VAP) using a Pegasus PCA infusion pump for a period of 30 or 60 minutes. A minimum period of 30 minutes was allotted for the hemodynamic parameters to return to baseline prior to the next test article infusion dose. The process was repeated for each of the stated test articles. The same procedure was followed for the 1 hour infusion with 1 hour allotted for parameters to return to base line.
The non-human primates were previously surgically prepared with telemetry transducers, type TL11M2-D70-PCT (Data Sciences International). The acquisition and analysis was done using a Ponemah (Version 4.8 or higher) data acquisition and analysis system installed on the hard drive of a computer. The computer was equipped with disk drive for file back up on readable write-once only optical media (CD-R or DVD-R).
Prior to the first dose administration, baseline data was acquired. For each subsequent dose, data was collected for approximately 30 min postdose. Prior to the next dose, the hemodynamic parameters were allowed to return to a stable baseline±10%.
Systolic blood pressure (SYS or SBP), diastolic blood pressure (DBP), mean arterial pressure (MAP), heart rate (HR), and all lead II ECG variables were recorded. The telemetry data files were transferred to an Excel (MicroSoft® Version 2003) spreadsheet. The following variables from the lead II ECG were measured: PR interval, QRS duration, QT interval, RR interval, and QTcF interval (calculated as
A visual inspection of the entire collected ECG waveform for disturbances in rhythm and waveform morphology was performed. The data for selected time points were analyzed and assessed on completion of data acquisition and were the average of at least 30 beats (ABP and ECG) of data at the selected analysis time, when possible. The time points for both hemodynamic and ECG data analysis were an initial 30 min baseline prior to the first dose, at a 10 min during each infusion postdose interval relative to end of each infusion, and time points prior to the next test article infusion for each test compound.
Non-human primates were selected because they have the same RAMP 1-CGRP receptor complex as humans.

[2] = NHP a, dose day 2, during 30 minute infusions of 0.024 ug/kg/min
[3] = NHP a, dose day 3, during 30 minute infusions of 0.024 ug/kg/min
[4] = NHP a, dose day 3, during 1 hour infusion of 0.024 ug/kg/min
[5] = NHP b, dose day 2, during 30 minute infusions of 0.024 ug/kg/min
[6] = NHP b, dose day 3, during 30 minute infusions of 0.024 ug/kg/min
[7] = NHP b, dose day 3, during 1 hour infusion of 0.024 ug/kg/min
[8] = average of a 2, b 2, a 3, b 3, during 30 minute infusions of 0.024 ug/kg/min
[9] = average of a3, b3, during 1 hour infusion of 0.024 ug/kg/min

ACNTATCVTHRLAGLLSRSGGMVKSNFVPTNVGSKAF-NH2 [βCGRP]
heart rate and blood pressure effect (rats): tachycardia with no significant hypotension
course of heart rate during 1 hour infusion ([1]; 1 hour infusion of 0.024 ug/kg/min, after 30 minutes): Heart rate continues to drop after 30 minutes
Percent change in HR, a 2 [1, 2]: 1.2%
Percent change in mean BP, a 2 [1, 2]: −8.8%
Percent change in systolic BP, a 2 [1, 2]: −7.4%
Percent change in HR, a 3 [1, 3]: −13.6%
Percent change in mean BP, a 3 [1, 3]: −16.8%
Percent change in systolic BP, a 3 [1, 3]: −12.2%
Percent change in HR at 30 minutes, a3 [1, 4]: −13.6%
Percent change in HR at 60 minutes, a3 1 hr [1, 4]: −10.7%
Percent change in mean systolic BP at 30 minutes, a3 [1, 4]: −16.8%
Percent change in mean systolic BP at 60 minutes, a3 1 hr [1, 4]: 0.0%
Percent change in systolic BP at 30 minutes, a3 [1, 4]: −12.2%
Percent change in systolic BP at 60 minutes, a3 1 hr [1, 4]: −0.8%
Percent change in HR, b 2 [1, 5]: −21.3%
Percent change in mean BP, b 2 [1, 5]: −6.7%
Percent change in systolic BP, b 2 [1, 5]: −8.1%
Percent change in HR, b 3 [1, 6]: −22.0%
Percent change in mean BP, b 3 [1, 6]: −23.4%
Percent change in systolic BP, b 3 [1, 6]: −23.2%
Percent change in HR at 30 minutes, b3 [1, 7]: −22.0%
Percent change in HR at 60 minutes, b3 1 hr [1, 7]: −18.1%
Percent change in mean systolic BP at 30 minutes, b3 [1, 7]: −23.4%
Percent change in mean systolic BP at 60 minutes, b3 1 hr [1, 7]: −10.7%
Percent change in systolic BP at 30 minutes, b3 [1, 7]: −23.2%
Percent change in systolic BP at 60 minutes, b3 1 hr [1, 7]: −10.1%
Percent change in mean HR, a 2 ([1]; Table 14, NHP a, dose day 2, during 30 minute infusions of 0.024 ug/kg/min): 1.2%
Percent change in mean HR, a 3 ([1]; Table 14, NHP a, dose day 3, during 30 minute infusions of 0.024 ug/kg/min): −13.6%
Percent change in mean HR, b 2 ([1]; Table 14, NHP b, dose day 2, during 30 minute infusions of 0.024 ug/kg/min): −21.3%
Percent change in mean HR, b 3 ([1]; Table 14, NHP b, dose day 3, during 30 minute infusions of 0.024 ug/kg/min): −22.0%
Percent change in mean HR, HR ([1]; Table 14, average of a 2, b 2, a 3, b 3, during 30 minute infusions of 0.024 ug/kg/min): −13.9%
Percent change in mean HR at 30 minutes, a3 ([1]; Table 24, NHP a, dose day 3, during 1 hour infusion of 0.024 ug/kg/min): −13.6%
Percent change in mean HR at 30 minutes, b3 ([1]; Table 24, NHP b, dose day 3, during 1 hour infusion of 0.024 ug/kg/min): −22.0%
Percent change in mean HR at 30 minutes, HR T30 ([1]; Table 24, average of a3, b3, during 1 hour infusion of 0.024 ug/kg/min): −17.8%
Percent change in mean HR at 60 minutes, a3 1 hr ([1]; Table 25, NHP a, dose day 3, during 1 hour infusion of 0.024 ug/kg/min): −10.7%
Percent change in mean HR at 60 minutes, b3 1 hr ([1]; Table 25, NHP b, dose day 3, during 1 hour infusion of 0.024 ug/kg/min): −18.1%
Percent change in mean HR at 60 minutes, HR T60 ([1]; Table 25, average of a3, b3, during 1 hour infusion of 0.024 ug/kg/min): −14.4%
Percent change in HR, HR [1, 8]: −13.9%
Percent change in mean BP, BP [1, 8]: −13.9%
Percent change in systolic BP, BP [1, 8]: −12.7%
Percent change in HR at 30 minutes, HR T30 [1, 9]: −17.8%
Percent change in HR at 60 minutes, HR T60 [1, 9]: −14.4%
Percent change in mean systolic BP at 30 minutes, BP T30 [1, 9]: −20.1%
Percent change in mean systolic BP at 60 minutes, BP T60 [1, 9]: −5.4%
Percent change in systolic BP at 30 minutes, T30 [1, 9]: −17.7%
Percent change in systolic BP at 60 minutes, T60 [1, 9]: −5.4%
effect on heart rate ([1]; non-sedated cynomolgus monkeys, IV infusion): maintenance of pre-administration heart rate, and in some cases, reduction in heart rate
